Tests used:
Type in all cases: in vivo
[1] = Pharmacokinetics in dog (iv and PO); details: iv 0.5 mg/kg, PO 1.0 mg/kg
[2] = Pharmacokinetics in rat (iv and PO); details: iv 1.0 mg/kg, PO 2.0 mg/kg
[3] = Pharmacokinetics in mice (iv and PO); details: iv 1.0 mg/kg, PO 2.0 mg/kg

Q: For `COCCCOc1cc2c(cc1OC)-c1cc(=O)c(C(=O)O)cn1[C@H]1[C@@H]2CCC1(C)C` [Compound 1.1, (3aS,12bR)-10-methoxy-11-(3-methoxypropoxy)-3,3-dimethyl-7-oxo-1,2,3,3a,7,12b-hexahydrocyclopenta[c]pyrido[2,1-a]isoquinoline-6-carboxylic acid], which “Oral BA” value [1] is on record?
A: The value was 93 % F.

Q: And the T1/2term [1]?
A: Its T1/2term is 5.9 h.

Q: And the “Oral BA” value [2]?
A: The value was 97 % F.

Q: And the T1/2term [2]?
A: Its T1/2term is 2.4 h.

Q: What about the “Oral BA” value [3] of the same compound?
A: Its value is 59 % F.

Q: What about the T1/2term [3] of the same compound?
A: Its T1/2term is 1.6 h.

Q: With `COCCCOc1cc2c(cc1OC)-c1cc(=O)c(C(=O)O)cn1[C@H]1[C@@H]2OCC1(C)C` [Compound 4.1, (3aR,12bR)-10-methoxy-11-(3-methoxypropoxy)-3,3-dimethyl-7-oxo-3,3a,7,12b-tetrahydro-2H-furo[3,2-c]pyrido[2,1-a]isoquinoline-6-carboxylic acid] as the compound, how does the “Oral BA” value [1] read?
A: The value was 94 % F.

Q: And the “Oral BA” value [2]?
A: The value was 65 % F.

Q: And the T1/2term [2]?
A: Its T1/2term is 1.2 h.

Q: What about the “Oral BA” value [3] of the same compound?
A: Its value is 100 % F.

Q: And the T1/2term [3]?
A: The T1/2term was 1.8 h.

Q: With `COCCCOc1cc2c(cc1OC)-c1c(F)c(=O)c(C(=O)O)cn1[C@H]1[C@@H]2CCC1(C)C` [Compound 3.1, (3aS,12bR)-8-fluoro-10-methoxy-11-(3-methoxypropoxy)-3,3-dimethyl-7-oxo-1,2,3,3a,7,12b-hexahydrocyclopenta[c]pyrido[2,1-a]isoquinoline-6-carboxylic acid] as the compound, how does the “Oral BA” value [1] read?
A: The value was 96 % F.

Q: What about the T1/2term [1] of the same compound?
A: The T1/2term was 7.2 h.

Q: What about the “Oral BA” value [2] of the same compound?
A: The value was 57 % F.

Q: And the T1/2term [2]?
A: Its T1/2term is 9.2 h.

Q: What about the “Oral BA” value [3] of the same compound?
A: Its value is 87 % F.

Q: What about the T1/2term [3] of the same compound?
A: The T1/2term was 3.8 h.

From patent US20200270265A1, “TETRACYCLIC PYRIDONE COMPOUNDS AS ANTIVIRALS” (Novartis AG, priority 2016, published 2020)
